Consider one compound from patent publication US20240009170A1, “INHIBITION OF GLYCOGEN SYNTHASE KINASE-3 (GSK-3)” (Brown University, priority 2020, published 2024).

SMILES strings stand for the structures.

The subject of data set [1] is healthy donor-derived CD8+ T cells. Description: Cytokine profile of immune cell culture supernatant, donor-derived CD8+ T cells. It counts as cell-based, Human. The note with it: 1 μM, 48 hours. As to the method:
Isolation of donor derived CD8+ T cells. An Easy Step Human CD8+ T Cell Isolation Kit was used to isolated CD8+ T cells from a donor PBMC sample via negative selection (Cat #, 17913, Stem Cell Technologies, Vancouver, Canada).
Collection of cell culture supernatants used in cytokine measurements. Cells were plated at 3.5×10^4 cells in a 48-well plate (Thermo Fisher Scientific, Waltham, MA, USA) in complete medium and incubated at 37° C. with 5% CO2. At twenty-four hours after plating, almost all the tumor cells were adherent to the bottom of the flask and the complete medium was replaced with drug-containing medium. Subsequently, the culture supernatants were collected after forty-eight hours of incubation and were frozen at −80° C. until the measurement of cytokines was performed. The day of analysis, samples were thawed and centrifuged to remove cellular debris.
Human cytokine profiling. Human cell line culture supernatants were analyzed using an R&D systems Human Premixed Multi-Analyte Kit (R&D Systems, Inc., Minneapolis, MN, USA) and a Luminex 200 Instrument (LX200-XPON-RUO, Luminex Corporation, Austin, TX, USA) according to the manufacturer's instructions. […]
9-ING-41 increases secreted cytotoxic proteins IFN-v, Granzyme B, and TRAIL in immune cells. […] Here, the inventors determined how 9-ING-41 treatment impacts the immune cell cytokinome. […]

The test system of another data set is ovarian cancer. The note with it: cited from earlier work.
The next data set relates to GSK-3. The note with it: cited from earlier work.
Another data set deals with TALL-104 T cells. Nature of the data set: Western blot analysis, TALL-104. Type of data set: cell-based, Human. On the procedure:
Western blot analysis. Cells were plated in a 6-well plate and incubated overnight before the spent media was replaced with drugged media. Drug treatment lasted for indicated durations. Protein was extracted using radioimmunoprecipitation (RIPA) assay buffer (Cat #R0278, Sigma-Aldrich, St. Louis, MO) containing cOmplete™ Mini, EDTA-free Protease Inhibitor Cocktail (Cat #4693159001, Roche, Basel, Switzerland). Denaturing sample buffer was added, samples were boiled at 95 degrees for 10 minutes. An equal amount of protein lysate was electrophoresed through NuPAGE™ 4 to 12%, Bis-Tris, 1.5 mm, Mini Protein Gels (Invitrogen, Waltham, MA, USA) then transferred to PVDF membranes. The PVDF membrane was blocked with 5% non-fat milk (Sigma-Aldrich, St. Louis, MO, USA) in 1× TTBS. Primary antibodies were incubated with the transferred PVDF membrane in blocking buffer at 4° C. overnight. Secondary antibodies used included goat anti-rabbit IgG (H+L) secondary antibody, HRP (Cat #31460, Invitrogen, Waltham, MA, USA) and goat anti-mouse IgG (H+L) secondary antibody, HRP (Cat #31430, Invitrogen, Waltham, MA, USA). Signal was detected using a Syngene Imaging System.
9-ING-41 treatment decreases survival factor expression while increasing PD-L1 levels in colorectal cancer cell lines. To elucidate the mechanism behind the differential effects of 9-ING-41 on either colorectal cancer or immune cells in co-culture and cytokine profiling assays, the inventors performed Western blot analyses on tumor and immune cells treated with 9-ING-41 over a 72-hour time course.
Treating cells from colorectal cancer cell lines with 1 μM 9-ING-41 decreases Surivin, NF-κB p65, and IκBα while increasing PD-L1 levels in, 9-ING-41 treatment of immune cells increases NIK. Western blot analysis of HCT-116 and HT-29 colorectal cancer cells for expression of indicated proteins after increasing durations of 9-ING-41 treatment (0-72 hours). Western blot analysis of TALL-104 T cells for expression of indicated proteins after increasing durations of 9-ING-41 treatment (0-72 hours). […]
(Immunoblotting shows a protein as a band on a membrane.)

Data set [2] has as its system prostate cancer cell lines. The note with it: cited from earlier work.
For data set [3], the system named is HCT-116 colorectal cancer cells. Nature of the data set: Co-culture of HCT-116 and NK-92 cells with or without αPD-1 therapy. Type of data set: cell-based, Human. The following applies: 9-ING-41+NK-92. As to the method: Immune cell co-culture experiments. Co-culture experiments were conducted with GFP+ SW480 or HCT-116 colorectal cancer cells and either NK-92 natural killer cells or TALL-104 T cells in a 48-well plate, in the presence or absence of 9-ING-41. HCT-116 cells were labeled using CellTracker™ Green CMFDA (5-chloromethylfluorescein diacetate), immune cells (NK-92, TALL-104) were labeled using CellTracker™ Blue CMAC Dye (7-amino-4-chloromethylcoumarin), and ethidium homodimer-1 (EthD-1) was used as a marker of cell death (Invitrogen, Thermo Fisher Scientific, Waltham, MA, USA).

As to `Cn1cc(C2=C(c3coc4ccc(F)cc34)C(=O)NC2=O)c2cc3c(cc21)OCO3` [9-ING-41], in data set [1], the “all three cytotoxic molecules (IFN-γ, granzyme B, TRAIL)” value was “increases”. Besides, in the data set on ovarian cancer, the “activity compared with lithium and other ATP-competitive inhibitors such as SB216763” value is listed as “more active”. Further, in the data set with GSK-3, the GSK-3 isoforms inhibited entry was “inhibits both α and β isoforms”; the “potency compared with other GSK-3 inhibitors” value was “significantly more potent”. Besides, in the data set with TALL-104 T cells (0-72 hours), the PD-1 expression entry is “decreased”; the “Survivin and NIK” value is on record as “surprising increases”. The “NF-KB, IKK β, IKBα, pIKBα, and Bcl-2” value in the data set with TALL-104 T cells (as treatment duration increased) is recorded as “no significant changes”. The “expression of PD-L1” value in data set [2] was “regulated the expression of PD-L1”. For the same compound, the “benefit over combination αPD-1 therapy+NK-92 only groups” value in data set [3] was “significant benefit”.
